Measurements taken from ChEMBL document CHEMBL1150978, “Design and synthesis of cosalane, a novel anti-HIV agent” (Bioorg Med Chem Lett, 1993).

How the values were obtained:
[1] = Tested for the antiviral activity of production of viral antigen (p30) against Sc-1 cells of rauscher murine leukemia virus (R-Mul V); type: functional, cell-based; settings: Mus musculus
MT4 [2] = experiment: Tested for the antiviral activity against MT-4 cells infected with HIV (IIIb) strain resistant to non-nucleoside reverse transcriptase inhibitors; type: functional, cell-based; settings: Homo sapiens
CEM-SS [3] = experiment: Tested for the therapeutic index against CEM-SS cells of HIV-1 (IIIb); type: functional, Homo sapiens
CEM-SS [4] = experiment: Tested for the inhibitory activity against CEM-SS cells; type: functional, cell-based; settings: Homo sapiens
CEM-SS [5] = experiment: Tested for the antiviral activity against CEM-SS cells infected with HIV-1 (RF); value ranges from 2-15.; type: functional, cell-based; settings: Homo sapiens
CEM-SS [6] = experiment: Tested for the therapeutic index against CEM-SS cells of HIV-2 (NIH-D2); type: functional, Homo sapiens
CEM-SS [7] = experiment: Tested for the antiviral activity against CEM-SS cells infected with HIV-2 (NIH-D2); type: functional, cell-based; settings: Homo sapiens
MT2 [8] = experiment: Tested for the antiviral activity against MT-2 cells infected with AZT sensitive strain of HIV-1 (A012); type: functional, cell-based; settings: Homo sapiens
MT4 [9] = experiment: Tested for the therapeutic index against MT-4 cells of HIV-1 (IIIb); type: functional, Homo sapiens
MT2 [10] = experiment: Tested for the therapeutic index against MT-2 cells of AZT resistant strain of HIV-1 (A012); type: functional, Homo sapiens
CEM-SS [11] = experiment: Tested for the therapeutic index against CEM-SS cells of HIV-1 (RF); type: functional, Homo sapiens
MT2 [12] = experiment: Tested for the inhibitory activity against MT-2 cells; type: functional, cell-based; settings: Homo sapiens
[13] = Tested for the inhibitory activity against Sc-1 cells by plaque assay in mouse; type: functional, cell-based
MT2 [14] = experiment: Tested for the antiviral activity against MT-2 cells infected with AZT resistant strain of HIV-1 (A012); type: functional, cell-based; settings: Homo sapiens
[15] = Tested for the antiviral activity against Sc-1 cells infected with rauscher murine leukemia virus (R-Mul V) by plaque assay in mouse; type: functional, cell-based
[16] = Tested for the inhibitory activity of production of viral antigen (p30) against Sc-1 cells of rauscher murine leukemia virus (R-Mul V); type: functional, cell-based; settings: Mus musculus
MT2 [17] = experiment: Tested for the therapeutic index against MT-2 cells of AZT sensitive strain of HIV-1 (A012); type: functional, Homo sapiens
[18] = Tested for the therapeutic index against Sc-1 cells of rauscher murine leukemia virus (R-Mul V) by plaque assay in mouse; type: functional
MT4 [19] = experiment: Tested for the inhibitory activity against MT-4 cells; type: functional, cell-based; settings: Homo sapiens
[20] = Tested for the therapeutic index of production of viral antigen (p30) against Sc-1 cells of rauscher murine leukemia virus (R-Mul V); type: functional, Mus musculus

In the case of `CC(C)CCCC(C)[C@H]1CC[C@H]2[C@@H]3CCC4C[C@@H](CCC=C(c5cc(Cl)c(O)c(C(=O)O)c5)c5cc(Cl)c(O)c(C(=O)O)c5)CC[C@]4(C)[C@H]3CC[C@]12C` (stereo not given in full), the EC50 [1] is reported as 7 µM, the EC50 (MT4 [2]) is reported as 20 µM and the TI50 (CEM-SS [3]) is reported as >100. The IC50 (CEM-SS [4]) was > 300 µM, the EC50 (CEM-SS [5]) was 2 µM and the TI50 (CEM-SS [6]) was >60. For the same compound, the EC50 (CEM-SS [7]) was 5 µM, the EC50 (MT2 [8]) was 8 µM and the TI50 (MT4 [9]) was >15. The TI50 (MT2 [10]) was 20, the TI50 (CEM-SS [11]) was >20 and the IC50 (MT2 [12]) was 200 µM. The IC50 [13] was > 32 µM, the EC50 (MT2 [14]) was 10 µM and the EC50 [15] was 4 µM. For the same compound, the IC50 [16] was > 32 µM, the TI50 (MT2 [17]) was 25 and the TI50 [18] was >8. The IC50 (MT4 [19]) was > 300 µM and the TI50 [20] was >4.
